Assay results from PubChem BioAssay (NCI).
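GI50 marks 50% less growth. TGI marks complete inhibition of growth.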

Legend:
Experiment in all cases: NCI tumour cell line growth inhibition, 384-well format
786-0 renal = system: 786-0 renal
A498 renal = system: A498 renal
A549 NSCLC = system: A549 NSCLC
ACHN renal = system: ACHN renal
BT-549 breast = system: BT-549 breast
CAKI-1 renal = system: CAKI-1 renal
CCRF-CEM leukemia = system: CCRF-CEM leukemia
COLO 205 colon = system: COLO 205 colon
DU-145 prostate = system: DU-145 prostate
EKVX NSCLC = system: EKVX NSCLC
HCC-2998 colon = system: HCC-2998 colon
HCT-116 colon = system: HCT-116 colon
HCT-15 colon = system: HCT-15 colon
HL-60(TB) leukemia = system: HL-60(TB) leukemia
HOP-62 NSCLC = system: HOP-62 NSCLC
HOP-92 NSCLC = system: HOP-92 NSCLC
HT29 colon = system: HT29 colon
IGROV1 ovarian = system: IGROV1 ovarian
K-562 leukemia = system: K-562 leukemia
KM12 colon = system: KM12 colon
LOX IMVI melanoma = system: LOX IMVI melanoma
M14 melanoma = system: M14 melanoma
MALME-3M melanoma = system: MALME-3M melanoma
MCF7 breast = system: MCF7 breast
MDA-MB-231 breast = system: MDA-MB-231 breast
MDA-MB-435 melanoma = system: MDA-MB-435 melanoma
MDA-MB-468 breast = system: MDA-MB-468 breast
MOLT-4 leukemia = system: MOLT-4 leukemia
NCI-H226 lung = system: NCI-H226 lung
NCI-H23 lung = system: NCI-H23 lung
NCI-H322M lung = system: NCI-H322M lung
NCI-H460 NSCLC = system: NCI-H460 NSCLC
NCI-H522 lung = system: NCI-H522 lung
NCI/ADR-RES ovarian = system: NCI/ADR-RES ovarian
OVCAR-3 ovarian = system: OVCAR-3 ovarian
OVCAR-4 ovarian = system: OVCAR-4 ovarian
OVCAR-5 ovarian = system: OVCAR-5 ovarian
OVCAR-8 ovarian = system: OVCAR-8 ovarian
PC-3 prostate = system: PC-3 prostate
RPMI-8226 leukemia = system: RPMI-8226 leukemia
RXF 393 renal = system: RXF 393 renal
SF-268 CNS = system: SF-268 CNS
SF-295 CNS = system: SF-295 CNS
SF-539 CNS = system: SF-539 CNS
SK-MEL-2 melanoma = system: SK-MEL-2 melanoma
SK-MEL-28 melanoma = system: SK-MEL-28 melanoma
SK-MEL-5 melanoma = system: SK-MEL-5 melanoma
SK-OV-3 ovarian = system: SK-OV-3 ovarian
SN12C renal = system: SN12C renal
SNB-19 CNS = system: SNB-19 CNS
SNB-75 CNS = system: SNB-75 CNS
SR leukemia = system: SR leukemia
SW-620 colon = system: SW-620 colon
T-47D breast = system: T-47D breast
TK-10 renal = system: TK-10 renal
U251 glioblastoma = system: U251 glioblastoma
UACC-257 melanoma = system: UACC-257 melanoma
UACC-62 melanoma = system: UACC-62 melanoma
UO-31 renal = system: UO-31 renal

Work on `CO[C@H]1/C=C/C[C@H](C)[C@@H](C)S(=O)(=O)NC(=O)c2ccc3c(c2)N(C[C@@H]2CC[C@H]21)C[C@@]1(CCCc2cc(Cl)ccc21)CO3` yielded a GI50 ([…]-0 renal) of 4.4 µM, a TGI (786-0 renal) of 15.8 µM and a GI50 (A498 renal) of 3.29 µM. It also gave a TGI (A498 renal) of 12.5 µM, a GI50 (A549 NSCLC) of 3.37 µM and a TGI (A549 NSCLC) of 11.1 µM. It also gave a GI50 (ACHN renal) of 4.5 µM, a TGI (ACHN renal) of 14.7 µM and a GI50 (BT-549 breast) of 1.65 µM. It also gave a TGI (BT-549 breast) of 3.33 µM, a GI50 (CAKI-1 renal) of 11.3 µM and a TGI (CAKI-1 renal) of 23.5 µM. The GI50 (CCRF-CEM leukemia) was 0.468 µM, the TGI (CCRF-CEM leukemia) was 1.11 µM and the GI50 (COLO 205 colon) was 4.06 µM. The TGI (COLO 205 colon) was 11.3 µM, the GI50 (DU-145 prostate) was 3.87 µM and the TGI (DU-145 prostate) was 13.1 µM. For the same molecule, the GI50 (EKVX NSCLC) was 1.98 µM, the TGI (EKVX NSCLC) was 7.23 µM and the GI50 (HCC-2998 colon) was 1.62 µM. For the same molecule, the TGI (HCC-2998 colon) was 3.84 µM, the GI50 (HCT-116 colon) was 2.93 µM and the TGI (HCT-116 colon) was 8.98 µM. The GI50 (HCT-15 colon) was 3.39 µM, the TGI (HCT-15 colon) was 10.6 µM and the GI50 (HL-60(TB) leukemia) was 0.021 µM. For the same molecule, the TGI (HL-60(TB) leukemia) was 0.0423 µM, the GI50 (HOP-62 NSCLC) was 2.61 µM and the TGI (HOP-62 NSCLC) was 6.27 µM. The GI50 (HOP-92 NSCLC) was 2.13 µM, the TGI (HOP-92 NSCLC) was 5.71 µM and the GI50 (HT29 colon) was 3.59 µM. For the same molecule, the TGI (HT29 colon) was 12.4 µM, the GI50 (IGROV1 ovarian) was 3.71 µM and the TGI (IGROV1 ovarian) was 13.4 µM. For the same molecule, the GI50 (K-562 leukemia) was 2 µM, the TGI (K-562 leukemia) was 5.52 µM and the GI50 (KM12 colon) was 3.97 µM. For the same molecule, the TGI (KM12 colon) was 13.5 µM, the GI50 (LOX IMVI melanoma) was 2.29 µM and the TGI (LOX IMVI melanoma) was 4.18 µM. The GI50 (M14 melanoma) was 2.07 µM, the TGI (M14 melanoma) was 4.4 µM and the GI50 (MALME-3M melanoma) was 2.83 µM. The TGI (MALME-3M melanoma) was 7.6 µM, the GI50 (MCF7 breast) was 1.31 µM and the TGI (MCF7 breast) was 4 µM. It also gave a GI50 (MDA-MB-231 breast) of 3.64 µM, a TGI (MDA-MB-231 breast) of 9.55 µM and a GI50 (MDA-MB-435 melanoma) of 1.98 µM. It also gave a TGI (MDA-MB-435 melanoma) of 4.87 µM, a GI50 (MDA-MB-468 breast) of 0.339 µM and a TGI (MDA-MB-468 breast) of 1.07 µM. For the same molecule, the GI50 (MOLT-4 leukemia) was 0.263 µM, the TGI (MOLT-4 leukemia) was 0.794 µM and the GI50 (NCI-H226 lung) was 3.1 µM. For the same molecule, the TGI (NCI-H226 lung) was 9.05 µM, the GI50 (NCI-H23 lung) was 0.758 µM and the TGI (NCI-H23 lung) was 2.2 µM. It also gave a GI50 (NCI-H322M lung) of 6.3 µM, a TGI (NCI-H322M lung) of 18.4 µM and a GI50 (NCI-H460 NSCLC) of 1.78 µM. It also gave a TGI (NCI-H460 NSCLC) of 3.44 µM, a GI50 (NCI-H522 lung) of 0.95 µM and a TGI (NCI-H522 lung) of 2.27 µM. For the same molecule, the GI50 (NCI/ADR-RES ovarian) was 1.74 µM, the TGI (NCI/ADR-RES ovarian) was 3.64 µM and the GI50 (OVCAR-3 ovarian) was 1.71 µM. For the same molecule, the TGI (OVCAR-3 ovarian) was 3.22 µM, the GI50 (OVCAR-4 ovarian) was 1.33 µM and the TGI (OVCAR-4 ovarian) was 3.39 µM. For the same molecule, the GI50 (OVCAR-5 ovarian) was 8.16 µM, the TGI (OVCAR-5 ovarian) was 20.1 µM and the GI50 (OVCAR-8 ovarian) was 2.81 µM. It also gave a TGI (OVCAR-8 ovarian) of 7.42 µM, a GI50 (PC-3 prostate) of 3.93 µM and a TGI (PC-3 prostate) of 14 µM. It also gave a GI50 (RPMI-8226 leukemia) of 0.0172 µM, a TGI (RPMI-8226 leukemia) of 0.0405 µM and a GI50 (RXF 393 renal) of 0.689 µM. For the same molecule, the TGI (RXF 393 renal) was 2.35 µM, the GI50 (SF-268 CNS) was 2.45 µM and the TGI (SF-268 CNS) was 7.41 µM. For the same molecule, the GI50 (SF-295 CNS) was 1.8 µM, the TGI (SF-295 CNS) was 3.72 µM and the GI50 (SF-539 CNS) was 1.75 µM. For the same molecule, the TGI (SF-539 CNS) was 3.42 µM, the GI50 (SK-MEL-2 melanoma) was 0.211 µM and the TGI (SK-MEL-2 melanoma) was 0.677 µM. For the same molecule, the GI50 (SK-MEL-28 melanoma) was 2.67 µM, the TGI (SK-MEL-28 melanoma) was 6.64 µM and the GI50 (SK-MEL-5 melanoma) was 1.66 µM. The TGI (SK-MEL-5 melanoma) was 3.07 µM, the GI50 (SK-OV-3 ovarian) was 4.24 µM and the TGI (SK-OV-3 ovarian) was 13.1 µM. For the same molecule, the GI50 (SN12C renal) was 2.92 µM, the TGI (SN12C renal) was 7.99 µM and the GI50 (SNB-19 CNS) was 3.81 µM. For the same molecule, the TGI (SNB-19 CNS) was 11.9 µM, the GI50 (SNB-75 CNS) was 3.6 µM and the TGI (SNB-75 CNS) was 9.04 µM. The GI50 (SR leukemia) was 0.0287 µM, the TGI (SR leukemia) was 0.173 µM and the GI50 (SW-620 colon) was 2.12 µM. It also gave a TGI (SW-620 colon) of 4.77 µM, a GI50 (T-47D breast) of 2.79 µM and a TGI (T-47D breast) of 11.1 µM. It also gave a GI50 (TK-10 renal) of 4.88 µM, a TGI (TK-10 renal) of 15.7 µM and a GI50 (U251 glioblastoma) of 3.2 µM. It also gave a TGI (U251 glioblastoma) of 9.92 µM, a GI50 (UACC-257 melanoma) of 2.95 µM and a TGI (UACC-257 melanoma) of 9.81 µM. The GI50 (UACC-62 melanoma) was 0.284 µM, the TGI (UACC-62 melanoma) was 0.762 µM and the GI50 (UO-31 renal) was 6.3 µM. It also gave a TGI (UO-31 renal) of 18.2 µM.
